# Laboratory results as given in USRE29359E, “Bronchodilator expectorant composition containing theophylline and a guaiacol” (priority 1976, dated 1977).
# Read-outs that look alike come from different tables or passages of the source.
# How the values were obtained:
# [1] = cited from earlier work
# [2] = Sucrose as supplementary solubilizing agent, crystallization after 3 days (Example 5)
# Procedure: Solutions containing varying quantities of theophylline, glyceryl guaiacolate, and sucrose according to the figures arranged in the following table are prepared. The ingredients are warmed to about 60° C. to effect solution and the solutions are then kept at room temperature to observe whether crystallization occurs. Sucrose is taken as representative of the total of all other water soluble pharmaceutically acceptable ingredients that may be used in formulating the present compositions for the purposes of this experiment. It is apparent, of course, that the actual weight of flavors, colors, and other ingredients that will ordinarily be used for the purpose of creating pharmaceutical elegance will be relatively minor and that sucrose or equivalent material such as corn syrup or sorbitol is the only ingredient of this type which will ordinarily be used in substantial quantity.
# (§1) (1) per 100 ml. of solution.
# (§2) (2) per 100 ml. of water in solution.
# *Appearance of duplicate samples after being stored separately at
# 26° C. and at 0° C. for 3 days.
# [3] = Guaiacol as solubilizing agent for theophylline in water (Example 2); format: physicochemical
# Procedure: In order to test the effectiveness of guaiacol as a solubilizing agent for theophylline in water, an experiment corresponding to the last entry in the table accompanying Example 1 is conducted. Theophylline, 4.0 g., and guaiacol, 4.39 g. […] A haze forms as the result of liquefaction of the guaiacol without complete solution thereof.
# This amount will solubilize up to and including 4.25 g. of theophylline per 100 ml. of water in the composition. For lower theophylline concentrations, proportionately less guaiacol may be used, 0.47 g. thereof per 100 ml. being sufficient to solubilize 0.85 g. of theophylline per 100 ml.
# [4] = accepted by the art; cited from earlier work
# [5] = Solubility in water or ethanol (statements in the description)
# [6] = cited from earlier work; remark: listed apart in the source
# [7] = Solubility of theophylline in water with glyceryl guaiacolate, crystallization after 3 days (Example 1); format: physicochemical; conditions: for Result (appearance after storage): 3 days
# Procedure: Varying quantities of theophylline and glyceryl guaiacolate are mixed and warmed with sufficient water to provide 100 ml. of solution. The solutions are cooled, adjusted to 100 ml. volume, and kept for 3 days to allow crystallization to take place. The specific gravities of the fresh solutions are measured, and the amount of water contained in 100 ml. of solution calculated. Two identical tubes of each composition are prepared. One is kept at room temperature (25° C.) and the other at 0° C.
# A larger quantity of theophylline, 1.0 g./100 ml., will, however, dissolve when 0.75 g. of glyceryl guaiacolate per 100 ml. is also present in solution. Up to 4.0 g. of theophylline per 100 ml. of solution is soluble at room temperature when 7.0 g. of glyceryl guaiacolate per 100 ml. of solution is employed.
# as §1, §2
# [8] = cited from earlier work; remark: listed apart in the source
smiles,measurement,setting,value
COc1ccccc1OC1(O)C(=O)NC(=O)NC1=O [hemiacetal condensation product of guaiacol and alloxan],water solubility,[1],≥ 1.7 g./100 ml.
COc1ccccc1OCC(O)CO (stereo not drawn) [glyceryl guaiacolate],concentration of saturated solution in water,[1]; 25 °C,5 g./100 ml.
same,water solubility,[1],≥ 1.7 g./100 ml.
same,glyceryl guaiacolate per 100 ml. of water in composition,[2],8.7 g. per 100 ml. of water
same,glyceryl guaiacolate upper concentration limit with sucrose,"[2]; water, 72 h",≥ 8.7 g. per 100 ml. of water
COc1ccccc1O [guaiacol],concentration of saturated solution in water,"[1]; room temperature, absence of other solutes",1.7 g./100 ml.
same,water solubility,[1],≥ 1.7 g./100 ml.
same,specific gravity of solution,"[3]; guaiacol 3.8 g, theophylline 4.0 g",~1.016
same,crystallization on storage,"[3]; guaiacol 3.8 g, 3 days, room temperature or 0 °C",no crystals separate
same,useful upper guaiacol solubility ratio,"[3]; room temperature or 0 °C, 4320 min",about 4.05 g. per 100 ml. of water
same,appearance of solution,"[3]; theophylline 4.0 g, guaiacol 3.8 g",clear solution
same,appearance of solution,"[3]; theophylline 4.0 g, guaiacol 4.39 g",A haze forms
same,guaiacol dissolved in 100 ml. of water,[3]; with 4.37 g. theophylline,4.05 g
Cn1c(=O)c2[nH]cnc2n(C)c1=O [theophylline],therapeutic blood concentration,[4],5 µg/mL
same,concentration in aqueous solution with guaiacol or water soluble forms thereof,[5]; solubilized by guaiacol and water soluble forms,≤ 4.0 g./100 ml.
same,effect of water soluble ingredients on theophylline solubility,"[5]; sucrose, sorbitol, glycerol, ethanol, solubilized by guaiacol and its derivatives",do not tend to diminish the solubility of the theophylline significantly
same,solubility,[5]; water,80 mg/mL
same,solubility in ethanol,[1]; published figure,1.25 g./100 ml.
same,pain on intramuscular injection,[6]; intramuscular,painful
same,absorption pattern,[6]; oral,irregular absorption pattern
same,gastrointestinal side effects,[6]; oral,"frequently results in abdominal discomfort, nausea, and vomiting"
same,crystallization at ice temperature,"[7]; 4.0 g theophylline, 7.0 g glyceryl guaiacolate per 100 ml. solution","Crystallization at ice temperature does, however, occur"
same,crystallization at ice temperature,"[7]; 4.37 g theophylline, 7.64 g glyceryl guaiacolate per 100 ml. water",Slight crystallization
same,theophylline soluble per 100 ml. of solution,"[7]; glyceryl guaiacolate 7.0 g. per 100 ml. of solution, room temperature, 4320 min",Up to 4.0 g. per 100 ml. of solution
same,Result (appearance after storage),"[7]; theophylline 0.83 g, glyceryl guaiacolate 0 per 100 ml solution, 25 °C",Clear Solution
same,Result (appearance after storage),"[7]; theophylline 0.85 g, glyceryl guaiacolate 0 per 100 ml solution, 0 °C",Crystals formed.
same,Result (appearance after storage),"[7]; theophylline 1.00 g, glyceryl guaiacolate 0.75 g per 100 ml solution, 25 °C",Solution clear.
same,Result (appearance after storage),"[7]; theophylline 3.50 g, glyceryl guaiacolate 4.00 g per 100 ml solution, 0 °C",Crystals formed.
same,Result (appearance after storage),"[7]; theophylline 3.50 g, glyceryl guaiacolate 5.00 g per 100 ml solution, 25 °C",Clear solution.
same,Result (appearance after storage),"[7]; theophylline 4.00 g, glyceryl guaiacolate 7.00 g per 100 ml solution, 0 °C",Crystals formed.
same,Result (appearance after storage),"[7]; theophylline 4.00 g, glyceryl guaiacolate 7.00 g per 100 ml solution, 25 °C",Clear solution.
same,solubility,"[7]; water, no glyceryl guaiacolate, read-out: normal solubility of theophylline (exceeded by)",< 8.5 mg/mL
same,theophylline per 100 ml. of water in composition,[2],4.4 g. per 100 ml. of water
same,solubility at 72 h,[2]; water,≥ 44 mg/mL
same,theophylline solubilized by guaiacol,[3]; guaiacol 0.47 g. per 100 ml.,0.85 g. per 100 ml.
same,theophylline solubilized per 100 ml. of water,"[3]; guaiacol about 4.05 g. per 100 ml. water, 4320 min",≤ 4.25 g. per 100 ml. of water
COc1cc(S(=O)(=O)[O-])ccc1O.O.[K+] [potassium guaiacol sulfonate],water solubility,[1],≥ 1.7 g./100 ml.
same,crystallization on storage,"potassium guaiacol sulfonate 4.28 g, theophylline 1.5 g per 100 ml., ice temperature",Slight crystallization occurs
same,appearance of solution,"potassium guaiacol sulfonate 4.28 g, theophylline 1.5 g per 100 ml., room temperature",clear solution
same,crystallization on storage,"potassium guaiacol sulfonate 4.28 g, theophylline 2 g per 100 ml., 0 °C",Crystallization from this solution occurs
same,separation of solid on storage,"potassium guaiacol sulfonate 4.28 g, theophylline 2 g per 100 ml., room temperature",only very slight separation of solid material occurs
same,crystallization on storage,"potassium guaiacol sulfonate 8.56 g, theophylline 4.0 g in 100 ml., 0 °C",Crystallization from this solution occurs
same,crystallization on storage,"potassium guaiacol sulfonate 8.56 g, theophylline 4.0 g in 100 ml., room temperature",Crystallization from this solution occurs
Cn1c(=O)c2[nH]cnc2n(C)c1=O [aminophylline],precipitation under acidic conditions,[8]; acidic conditions such as occur in the stomach,precipitation often occurs
same,solubility in alkaline solution,[8]; in excess of pH 8.0,relatively high solubilities in alkaline solution
